According to the NIST ThermoML archive (doi:10.1021/je500682v):
Numbers after ± are expanded uncertainties.

Columns and labels:
[1] = Crystal; DTA
[2] = Molar enthalpy of transition or fusion; conditions: Crystal; DSC

Normal melting temperature [1] [°C] | Molar enthalpy of transition or fusion [2] [kcal/mol] | Compound
152.00 ± 0.99 | 8.4 ± 0.454 | O=C(O)CCCCC(=O)O [1,6-hexanedioic acid]
99.10 ± 0.99 | 5.07 ± 0.287 | O=C(O)CCCC(=O)O [1,5-pentanedioic acid]
185.50 ± 0.99 | 7.82 ± 0.43 | O=C(O)CCC(=O)O [butanedioic acid]
